Test results from US12435072B2, “Compounds” (Vicore Pharma AB, priority 2019, dated 2025).

Experiments:
Type in all cases: in vitro ADME
CYP2C8 = biological target: T1, CYP2C8 (Homo sapiens, UniProt P10632); test: CYP inhibition in human liver microsomes, CYP2C8; conditions: probe paclitaxel and amodiaquine, substrate paclitaxel and amodiaquine, read-out: CYP2C8 Inh %
T1 construct: incubated with human liver microsomes; tissue Eurofins ITEMG232; host or cells: human liver microsomes
T1 sequence (P10632 1-490): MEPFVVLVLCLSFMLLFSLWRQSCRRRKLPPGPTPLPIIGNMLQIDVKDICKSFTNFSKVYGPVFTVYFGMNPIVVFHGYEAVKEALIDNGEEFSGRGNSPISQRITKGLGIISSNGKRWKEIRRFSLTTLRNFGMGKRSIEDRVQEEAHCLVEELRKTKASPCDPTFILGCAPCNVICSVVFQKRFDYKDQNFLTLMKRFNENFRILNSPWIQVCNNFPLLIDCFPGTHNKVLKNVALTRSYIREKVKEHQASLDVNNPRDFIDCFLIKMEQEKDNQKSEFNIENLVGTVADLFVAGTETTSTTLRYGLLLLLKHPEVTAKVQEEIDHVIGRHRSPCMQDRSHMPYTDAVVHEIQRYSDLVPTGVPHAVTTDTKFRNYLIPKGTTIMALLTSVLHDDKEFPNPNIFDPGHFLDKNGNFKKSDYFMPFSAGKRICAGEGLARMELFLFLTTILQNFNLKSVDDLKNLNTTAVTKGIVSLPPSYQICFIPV
Experimental: (§1) The following substrates were used: CYP1A phenacetin, CYP2B6 bupropion, CYP2C8 paclitaxel and amodiaquine, CYP2C9 diclofenac, CYP2C19 omeprazole, CYP2D6 dextromethorphan, CYP3A midazolam and testosterone. At the end of the incubation, the formation of metabolite was monitored by HPLC-MS/MS as the peak area response.

CYP2C9 = CYP2C9 (Homo sapiens, UniProt P11712); test: CYP inhibition in human liver microsomes, CYP2C9; parameters: incubated with human liver microsomes; tissue Eurofins ITEMG232; host or cells: human liver microsomes; conditions: probe diclofenac, substrate diclofenac, read-out: CYP2C9 Inh %
Experimental: as §1

CYP1A = biological target: T2, CYP1A (Homo sapiens, UniProt P05177); test: CYP inhibition in human liver microsomes, CYP1A; conditions: probe phenacetin, substrate phenacetin, read-out: CYP1A Inh %
T2 construct: incubated with human liver microsomes; tissue Eurofins ITEMG232; host or cells: human liver microsomes
T2 sequence (P05177 1-516): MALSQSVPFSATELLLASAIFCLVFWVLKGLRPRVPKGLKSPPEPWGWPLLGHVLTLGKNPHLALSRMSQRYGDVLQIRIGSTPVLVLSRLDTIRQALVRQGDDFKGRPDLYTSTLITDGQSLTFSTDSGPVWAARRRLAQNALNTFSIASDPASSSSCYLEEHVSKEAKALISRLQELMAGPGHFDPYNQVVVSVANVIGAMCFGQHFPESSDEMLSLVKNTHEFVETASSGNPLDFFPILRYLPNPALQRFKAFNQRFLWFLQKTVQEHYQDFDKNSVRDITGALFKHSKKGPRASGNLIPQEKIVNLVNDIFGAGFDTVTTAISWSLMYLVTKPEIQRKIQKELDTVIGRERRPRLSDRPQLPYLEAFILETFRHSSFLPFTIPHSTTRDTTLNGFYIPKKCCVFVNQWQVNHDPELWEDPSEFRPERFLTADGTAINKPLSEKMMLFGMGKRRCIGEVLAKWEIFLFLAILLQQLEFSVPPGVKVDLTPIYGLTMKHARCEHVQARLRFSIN
Experimental: as §1

CYP2C9, sequence (P11712 whole entry): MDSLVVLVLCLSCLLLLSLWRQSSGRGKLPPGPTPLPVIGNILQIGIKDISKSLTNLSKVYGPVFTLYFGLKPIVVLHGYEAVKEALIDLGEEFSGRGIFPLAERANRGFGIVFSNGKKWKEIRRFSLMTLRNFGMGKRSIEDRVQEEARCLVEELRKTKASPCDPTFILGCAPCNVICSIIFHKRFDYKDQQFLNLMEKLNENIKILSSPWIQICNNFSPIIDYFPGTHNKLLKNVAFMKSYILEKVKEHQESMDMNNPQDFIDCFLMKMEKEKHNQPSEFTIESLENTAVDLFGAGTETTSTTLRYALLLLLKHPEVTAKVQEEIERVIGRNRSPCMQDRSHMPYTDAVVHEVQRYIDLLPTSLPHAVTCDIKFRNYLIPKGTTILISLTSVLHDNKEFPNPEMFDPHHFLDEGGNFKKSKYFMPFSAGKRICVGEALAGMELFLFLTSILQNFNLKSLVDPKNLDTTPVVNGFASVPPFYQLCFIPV

inhibition at 10 µM (CYP2C8) [%]	inhibition at 10 µM (CYP2C9) [%]	inhibition at 10 µM (CYP1A) [%]	SMILES
40	49.7	7.3	Cc1nccn1Cc1ccc(-c2cc(CC(C)C)sc2S(=O)(=O)NC(=O)NCc2ccccc2)cc1 [Example 1, 1-benzyl-3-[[5-isobutyl-3-[4-[(2-methylimidazol-1-yl)methyl]phenyl]-2-thienyl]sulfonyl]urea]
52.8	30.4	5	Cc1nccn1Cc1ccc(-c2cc(CC(C)C)sc2S(=O)(=O)NC(=O)NCc2ccccn2)cc1 [Example 2, 3-(5-isobutyl-3-{p-[(2-Methyl-1H-imidazol-1-yl)methyl]phenyl}-2-thienylsulfonyl)-1-[(2-pyridyl)methyl]urea]
47.2	31.3	10.5	CCCCNC(=O)NS(=O)(=O)c1sc(CC(C)C)cc1-c1ccc(Cn2ccnc2C)cc1 [Example 4, 1-Butyl-3-(5-isobutyl-3-{p-[(2-methyl-1H-imidazol-1-yl)methyl]phenyl}-2-thienylsulfonyl)-urea]
49.3	27.9	7.3	Cc1nccn1Cc1ccc(-c2cc(CC(C)C)sc2S(=O)(=O)NC(=O)NCCCC(F)(F)F)cc1 [Example 5, 3-(5-isobutyl-3-{p-[(2-Methyl-1H-imidazol-1-yl)methyl]phenyl}-2-thienylsulfonyl)-1-(4,4,4-trifluorobutyl)-urea]
76.2	51.4	6.8	CCc1nccn1Cc1ccc(-c2cc(CC(C)C)sc2S(=O)(=O)NC(=O)NCc2ccccc2)cc1 [Example 6, 1-Benzyl-3-(3-{p-[(2-ethyl-1H-imidazol-1-yl)methyl]phenyl}-5-isobutyl-2-thienylsulfonyl)-urea]
38.6	10.2	10.6	CCc1nccn1Cc1ccc(-c2cc(CC(C)C)sc2S(=O)(=O)NC(=O)NCCOC)cc1 [Example 7, 3-(3-{p-[(2-Ethyl-1H-imidazol-1-yl)methyl]phenyl}-5-isobutyl-2-thienylsulfonyl)-1-(2-methoxy-ethyl)urea]
77	32	16	Cc1nccn1Cc1ccc(-c2cc(CC(C)C)sc2S(=O)(=O)NC(=O)NCc2ccccn2)cc1F [Example 13, 3-(3-{3-Fluoro-4-[(2-methyl-1H-imidazol-1-yl)methyl]phenyl}-5-isobutyl-2-thienylsulfonyl)-1-[(2-pyridyl)methyl]urea]
78	65	13	Cc1nccn1Cc1ccc(-c2cc(CC(C)C)sc2S(=O)(=O)NC(=O)NCCC(F)(F)F)cc1F [Example 14, 3-(3-{3-Fluoro-4-[(2-methyl-1H-imidazol-1-yl)methyl]phenyl}-5-isobutyl-2-thienylsulfonyl)-1-(3,3,3-trifluoropropyl)urea]
48	30	20	Cc1nccn1Cc1ccc(-c2cc(CC(C)C)sc2S(=O)(=O)NC(=O)NCc2nccn2C)cc1F [Example 15, 1-(3-{3-Fluoro-4-[(2-methyl-1H-imidazol-1-yl)methyl]phenyl}-5-isobutyl-2-thienylsulfonyl)-3-[(1-methyl-1H-imidazol-2-yl)methyl]urea]
56	50	8	Cc1nccn1Cc1ccc(-c2cc(CC(C)C)sc2S(=O)(=O)NC(=O)NC(C)c2ccccn2)cc1F (stereo not drawn) [Example 25, 3-(3-{3-Fluoro-4-[(2-methyl-1H-imidazol-1-yl)methyl]phenyl}-5-isobutyl-2-thienylsulfonyl)-1-[1-(2-pyridyl)ethyl]urea]
65	49	-26	CCc1nccn1Cc1ccc(-c2cc(CC(C)C)sc2S(=O)(=O)NC(=O)NCc2ccc(F)cc2)cc1F.O=C(O)C(F)(F)F [Example 32, 3-[(3-{4-[(2-ethyl-1H-imidazol-1-yl)methyl]-3-fluorophenyl}-5-(2-methylpropyl)thiophen-2-yl)sulfonyl]-1-[(4-fluorophenyl)methyl] urea trifluoroacetic acid]
69	34	14	CCCNC(=O)NS(=O)(=O)c1sc(CC(C)C)cc1-c1ccc(Cn2ccnc2CC)c(F)c1.O=C(O)C(F)(F)F [Example 33, 1-[(3-{4-[(2-ethyl-1H-imidazol-1-yl)methyl]-3-fluorophenyl}-5-(2-methylpropyl)thiophen-2-yl)sulfonyl]-3-propylurea trifluoroacetic acid]
64	75	-6	Cc1nccn1Cc1ccc(-c2cc(CC(C)C)sc2S(=O)(=O)NC(=O)NCc2ccc(F)c(F)c2)cc1F.O=C(O)C(F)(F)F [Example 34, 1-[(3,4-difluorophenyl)methyl]-3-[(3-{3-fluoro-4-[(2-methyl-1H-imidazol-1-yl)methyl]phenyl}-5-(2-methylpropyl)thiophen-2-yl)sulfonyl]urea trifluoroacetic acid]
56	71	20	Cc1nccn1Cc1ccc(-c2cc(CC(C)C)sc2S(=O)(=O)NC(=O)NCc2cccs2)cc1F.O=C(O)C(F)(F)F [Example 35, 1-[(3-{3-fluoro-4-[(2-methyl-1H-imidazol-1-yl)methyl]phenyl}-5-(2-methylpropyl)thiophen-2-yl)sulfonyl]-3-[(thiophen-2-yl)methyl]urea trifluoroacetic acid]
62	48	13	Cc1nccn1Cc1ccc(-c2cc(CC(C)C)sc2S(=O)(=O)NC(=O)NCc2cc(Cl)ccn2)cc1F.O=C(O)C(F)(F)F [Example 38, 1-[(4-chloropyridin-2-yl)methyl]-3-[(3-{3-fluoro-4-[(2-methyl-1H-imidazol-1-yl)methyl]phenyl}-5-(2-methylpropyl)thiophen-2-yl)sulfonyl]urea trifluoroacetic acid]
51	44	-2	Cc1nccn1Cc1ccc(-c2cc(CC(C)C)sc2S(=O)(=O)NC(=O)NCC(C)C)cc1F.O=C(O)C(F)(F)F [Example 39, 1-[(3-{3-fluoro-4-[(2-methyl-1H-imidazol-1-yl)methyl]phenyl}-5-(2-methylpropyl)thiophen-2-yl)sulfonyl]-3-(2-methylpropyl)urea trifluoroacetic acid]
64	70	-1	Cc1nccn1Cc1ccc(-c2cc(CC(C)C)sc2S(=O)(=O)NC(=O)NCC2CCC(F)(F)CC2)cc1F.O=C(O)C(F)(F)F [Example 40, 1-[(4,4-difluorocyclohexyl)methyl]-3-[(3-{3-fluoro-4-[(2-methyl-1H-imidazol-1-yl)methyl]phenyl}-5-(2-methylpropyl)thiophen-2-yl)sulfonyl]urea trifluoroacetic acid]
76	58	5	CC(C)Cc1cc(-c2ccc(Cn3ccnc3C(C)C)c(F)c2)c(S(=O)(=O)NC(=O)NCCC(F)(F)F)s1.O=C(O)C(F)(F)F [Example 41, 1-{[3-(3-fluoro-4-{[2-(propan-2-yl)-1H-imidazol-1-yl]methyl}phenyl)-5-(2-methylpropyl)thiophen-2-yl]sulfonyl}-3-(3,3,3-trifluoropropyl)urea trifluoroacetic acid]
